According to US8877738B2, “Antipathogenic peptides” (priority 2009, dated 2014):
Converted amounts (≈) assume the structure as drawn. Ends that are not written are not given here.

Experiments:
HPV-16 PsV = details: HPV-16-SEAP PsV preincubated with peptide, 293TT cells, 72 h post-infection
From the text: HPV-16 PsV were produced according to previously described methods (Buck et al., 2005). Briefly, 293TT cells were transfected with the plasmid p16sheLL expressing the papillomavirus major and minor capsid proteins (L1 and L2) together with a reporter plasmid expressing the secreted alkaline phosphatase (SEAP) or the green fluorescence protein (GFP) named pYSEAP or pfwB respectively. Capsids were allowed to mature overnight in cell lysate; the clarified supernatant was then loaded on top of a 27-33-39% Optiprep (Sigma-Aldrich, St. Louis, Mo., USA) density gradient at room temperature for 4 h. […] The L1 protein content of PsV stocks was determined by comparison with bovine serum albumin standards in Coomassie-stained SDS-PAGE gels.
For the Secreted Embryonic Alkaline Phosphate (SEAP)-based assays 293TT cells were preplated 3-4 h in advance in 96-well tissue culture-treated flat bottom plates at a density of 30,000 cells/well in 100 μl neutralization buffer (DMEM without phenol red, 10% heat-inactivated FBS, 1% glutamate, 1% nonessential amino acids, 1% penicillin-streptomycin-fungizone, and 10 mM HEPES). […] The SEAP content in the clarified supernatant was determined using a Great ESCAPE SEAP Chemiluminescence Kit (BD Clontech, Mountain View, Calif., USA) as directed by the manufacturer. […]

in vitro = details: human, 293TT cells
Method: The 293TT cell line derived from human embryonal kidney cells transformed with the SV40 large T antigen was cultured in Dulbecco's modified Eagle's medium (DMEM) (Gibco/BRL, Gaithersburg, Md., USA) supplemented with heat-inactivated 10% bovine serum (Gibco/BRL), Glutamax-I (Invitrogen, Carlsbad, Calif., USA) and nonessential aminoacids. This cell line allows high levels of protein to be expressed from vectors containing the SV40 origin due to overreplication of the expression plasmid (Buck et al., 2004).
Cells were seeded at a density of 5×10^4/well in 24-well plates; the next day they were treated with serially diluted peptides to generate dose-response curves. Forty-eight or 72 h after treatment, cell viability was determined by the 3-(4,5-dimethylthiazol-2-yl)-2,5-diphenyltetrazolium bromide (MTT) method; 50% cytotoxic concentration (CC50) values were determined using Prism.

HCMV VR1814 = details: HUVECs, M.O.I. 1, 6 days p.i.
Method: (§1) FIGS. 4A and 4B. […] HUVECs were infected with the endotheliotropic and clinical HCMV isolate VR1814 (FIG. 4B) at a M.O.I of 1. The extent of AD169 or AU replication was then assessed by titrating the infectivity of supernatants of HELF suspensions by standard plaque assay. The extent of VR1814 replication was measured by titrating the infectivity of supernatants of cell suspensions by the indirect immunoperoxidase staining procedure on HUVECs using a monoclonal antibody (mAb) reactive to the HCMV IE proteins. Plaques were microscopically counted, and the mean plaque counts for each peptide concentration were expressed as a percentage of the mean count of the controls. The number of plaques was plotted as a function of drug concentration, and the concentration producing a 50% reduction in plaque formation (IC50) was determined.
The cells and supernatants from the antiviral assay were then harvested and disrupted by sonication.

[1] = test system: HCMV clinical isolate AL1; details: HELFs, M.O.I. 1, 6 days p.i.
Method: as §1
(§2) After 1 hour, they were infected with HCMV AD169 or HCMV AL1 at a M.O.I. of 1 PFU/cell. […] The cells and supernatants from the antiviral assay were then harvested and disrupted by sonication. The extent of virus replication was assessed by titrating the infectivity of supernatants of cell suspensions by standard plaque assay on HELFs.

[2] = test system: HCMV laboratory strain AD169; details: HELFs, M.O.I. 1, treated 1 h before and during infection, 6 days p.i.
Method: as §1, §2

HSV-1 = HSV-1 attachment (adsorption) assay on Vero cells; type: cell-based; details: compound present during adsorption, 3 h at 4° C., 200 PFU; plaques after 48 h
Method: (§3) FIG. 3. The dendrimeric peptides SB105 and SB105-A10 inhibit HSV-1 and HSV-2 attachment to Vero cells. Pre-chilled Vero cells were incubated at 4° C. with different concentrations of SB105, SB105-A10, SB104 or heparin and with 200 PFU of HSV-1 or HSV-2. Following virus adsorption (3 h at 4° C.), cells were then washed with cold PBS three times to remove compound and unadsorbed viruses, overlaid with medium containing 1.2% methylcellulose and incubated at 37° C. for 48 h. Viral plaques were then stained and counted, and the mean plaque counts for each peptide concentration expressed as a percentage of the mean count of the controls. The data shown represent means±SD of three independent experiments (error bars).
(§4) Following virus adsorption (3 h at 4° C., a condition that is known to allow virus adsorption only), cells were then washed with cold PBS three times to remove compound and unadsorbed viruses, overlaid with medium containing 1.2% methylcellulose and incubated at 37° C. Forty eight hours later, plates were fixed and stained with crystal violet and the viral plaques counted.

HCMV AD169 = test: HCMV attachment (adsorption) assay on HELF cells; type: cell-based; details: compound present during adsorption, 3 h at 4° C., 200 PFU AD169; plaques after 6 days
Method: FIG. 6. HCMV adsorption to target cells is inhibited by SB105 and SB105-A10 dendrimeric peptides. Pre-chilled HELF cells were incubated at 4° C. with different concentrations of SB105, SB105-A10, SB104 or heparin and with 200 PFU of HCMV AD169. Following virus adsorption (3 h at 4° C.), cells were washed with cold PBS three times to remove compound and unadsorbed viruses, overlaid with medium containing 1.2% methylcellulose and incubated at 37° C. for 6 days. Viral plaques were then stained and counted and the mean plaque counts for each peptide concentration were expressed as a percentage of the mean count of the controls. The data shown represent means±SD of three independent experiments (error bars).
After 24 h, they were prechilled to 4° C. and incubated in duplicate at 4° C. with different concentrations of SB105, SB105_A10, SB104 (as negative control for inhibition of viral replication) or heparin (as a positive control for inhibition of viral adsorption) and with 200 PFU of HCMV AD169. Following virus adsorption (3 h at 4° C., a condition that is known to allow virus adsorption only), cells were then washed with cold PBS three times to remove compound and unadsorbed viruses, overlaid with medium containing 1.2% methylcellulose and incubated at 37° C. for 6 days. Plates were then fixed and stained with crystal violet and the viral plaques counted.

HSV-2 = HSV-2 attachment (adsorption) assay on Vero cells; type: cell-based; details: compound present during adsorption, 3 h at 4° C., 200 PFU; plaques after 48 h
Method: as §3, §4

HIV-1IIIb = HIV-1IIIb replication in C8166 cells (RNA load by real time RT-PCR, p24 ELISA); type: cell-based; details: day 7 post-infection, 0.1-20 μg/ml
From the text: FIG. 8: Quantitative real time RT-PCR analysis of HIV-1 RNA load in HIV-1 infected C8166 cell culture supernatants at day 7 post infection. […] The data are reported as means±SD of three independent experiments performed in duplicate.
FIG. 9: ELISA HIV-1 p24 protein analysis in HIV-1 infected C8166 cell culture supernatants at day 7 post infection. […] The data are reported as means±SD of three independent experiments performed in duplicate.
HIV-1 RNA viral load and HIV-1 gag p24 content were determined at day 7 post-infection in the culture supernatants in three independent experiments performed in duplicate. HIV-1 RNA was extracted by Roche high pure viral nucleic acid kit (Roche, Mannheim, Germany) from 200 μl of culture supernatants and then RNA load was assessed by quantitative real time RT-PCR as previously described (Gibellini et al., 2004). In parallel, HIV-1 gag p24 protein amount was determined by ELISA HIV-1 p24 antigen kit (Biomerieux Marcy L'Etoile, France).

| Molecule | IC50 against HPV-16 PsV (HPV-16 PsV) [µg/mL] | CC50 (in vitro) [µg/mL] | IC50, endotheliotropic HCMV VR1814 replication (HCMV VR1814) [µg/mL] | IC50, HCMV clinical isolate AL1 replication [1] [µg/mL] | 50% inhibition of HCMV AD169 replication (IC50) [2] [µg/mL] | effect on HSV-1 attachment to Vero cells (HSV-1) | effect on HCMV attachment (adsorption) to HELF cells (HCMV AD169) | effect on HSV-2 attachment to Vero cells (HSV-2) | HIV-1 gag p24 content in culture supernatants (HIV-1IIIb; ELISA) | HIV-1 RNA load in culture supernatants (HIV-1IIIb; real time RT-PCR) |
| --- | --- | --- | --- | --- | --- | --- | --- | --- | --- | --- |
| CC[C@H](C)[C@H](NC(=O)[C@H](CCCNC(=N)N)NC(=O)[C@@H](NC(=O)[C@H](CCCNC(=N)N)NC(=O)[C@H](CC(C)C)NC(=O)[C@H](CO)NC(=O)[C@H](C)N)C(C)C)C(=O)N[C@@H](CCCCN)C(=O)N[C@@H](CCCCN)C(=O)N[C@@H](CCC(N)=O)C(=O)NCCCC[C@H](NC(=O)[C@H](CCC(N)=O)NC(=O)[C@H](CCCCN)NC(=O)[C@H](CCCCN)NC(=O)[C@@H](NC(=O)[C@H](CCCNC(=N)N)NC(=O)[C@@H](NC(=O)[C@H](CCCNC(=N)N)NC(=O)[C@H](CC(C)C)NC(=O)[C@H](CO)NC(=O)[C@H](C)N)C(C)C)[C@@H](C)CC)C(=O)NCCCC[C@H](NC(=O)[C@H](CCCCNC(=O)[C@H](CCC(N)=O)NC(=O)[C@H](CCCCN)NC(=O)[C@H](CCCCN)NC(=O)[C@@H](NC(=O)[C@H](CCCNC(=N)N)NC(=O)[C@@H](NC(=O)[C@H](CCCNC(=N)N)NC(=O)[C@H](CC(C)C)NC(=O)[C@H](CO)NC(=O)[C@H](C)N)C(C)C)[C@@H](C)CC)NC(=O)[C@H](CCC(N)=O)NC(=O)[C@H](CCCCN)NC(=O)[C@H](CCCCN)NC(=O)[C@@H](NC(=O)[C@H](CCCNC(=N)N)NC(=O)[C@@H](NC(=O)[C@H](CCCNC(=N)N)NC(=O)[C@H](CC(C)C)NC(=O)[C@H](CO)NC(=O)[C@H](C)N)C(C)C)[C@@H](C)CC)C(=O)NCCC(N)=O [SB105, (ASLRVRIKKQ)4-Lys2-Lys-β-Ala] | 11.6 (≈ 2.23 µM) | > 100 | 1.1 (≈ 0.212 µM) | 1.2 (≈ 0.231 µM) | 1.17 | – | – | – | – | – |
| (NKKIRVRL)4-Lys2-Lys-β-Ala (also: tetramer on Lys2-Lys-β-Ala core) [SB104] | – | – | – | – | – | did not significantly reduce | did not significantly reduce | did not significantly reduce | did not induce significant inhibition | did not induce significant inhibition |
| heparin | – | – | – | – | – | prevented virus adsorption | prevented virus adsorption | prevented virus adsorption | – | – |
